Laboratory results published in ChEMBL document CHEMBL6127119 (J Med Chem, 2024).
Converted amounts (≈) assume the structure as drawn. The source made the active and inactive calls. The calls are words filed in the database; no cut-off is given here.

Key:
[1] = Toxicity in BALB/c mouse infected with methicillin-resistant Staphylococcus aureus MRSA252 assessed as survival rate at 10 mg/kg, iv for 7 days; type: organism-based; settings: in vivo, 168 h, time 7 day
Staphylococcus aureus [2] = assay: Antibacterial activity against vancomycin-intermediate Staphylococcus aureus incubated for 16 to 24 hrs by CLSI based broth microdilution method; type: functional; settings: time 16-24 hrs
[3] = Half life in CD-1 mouse at 10 mg/kg, iv measured for 24 hrs by UPLC analysis; type: ADME, organism-based; settings: in vivo
Staphylococcus aureus [4] = assay: Antibacterial activity against methicillin-susceptible Staphylococcus aureus incubated for 16 to 24 hrs by CLSI based broth microdilution method; type: functional; settings: time 16-24 hrs
Escherichia coli = assay: Antibacterial activity against Escherichia coli AB1157 incubated for 16 to 24 hrs by CLSI based broth microdilution method; type: functional; settings: time 16-24 hrs
Enterococcus faecium [5] = assay: Antibacterial activity against vancomycin-resistant Enterococcus faecium harboring VanA phenotype incubated for 16 to 24 hrs by CLSI based broth microdilution method; type: functional; settings: time 16-24 hrs
Staphylococcus aureus [6] = assay: Induction of cytoplasmic membrane permeabilization in methicillin-resistant Staphylococcus aureus MRSA252 at […] measured for 40 mins by PI/NPN staining based analysis; type: functional, organism-based; settings: dose 128.0 µg/ml
Enterococcus faecium [7] = assay: Antibacterial activity against vancomycin-resistant Enterococcus faecium harboring VanB phenotype incubated for 16 to 24 hrs by CLSI based broth microdilution method; type: functional; settings: time 16-24 hrs
[8] = Clearance in CD-1 mouse at 10 mg/kg, iv measured for 24 hrs by UPLC analysis; type: ADME, organism-based; settings: in vivo
Staphylococcus aureus [9] = assay: Induction of drug resistance in vancomycin-sensitive Staphylococcus aureus MRSA252 assessed as fold increase in MIC measured after 16 days of serial passages by broth microdilution method; type: functional; settings: time 16 day
Staphylococcus aureus [10] = assay: Post-antibiotic effect in Staphylococcus aureus MRSA252 assessed as change in bacterial titer at 20 times measured after 2 hrs; type: functional
[11] = MRT (infinity) in CD-1 mouse at 10 mg/kg, iv measured for 24 hrs by UPLC analysis; type: ADME, organism-based; settings: in vivo
Enterococcus faecalis = assay: Induction of inner membrane permeabilization in Enterococcus faecalis ATCC29212 at […] measured for 20 mins by DiSC3(5) staining based analysis; type: functional, organism-based; settings: dose 128.0 µg/ml
Staphylococcus aureus [12] = assay: Antibacterial activity against Staphylococcus aureus Mu50 at 1:1 ratio of compound and Ac2KAA at […] incubated for 16 to 24 hrs by absorbance based assay; type: functional
[13] = AUClast in CD-1 mouse at 10 mg/kg, iv measured for 24 hrs by UPLC analysis; type: ADME, organism-based; settings: in vivo
Pseudomonas aeruginosa = assay: Antibacterial activity against Pseudomonas aeruginosa PAO1 incubated for 16 to 24 hrs by CLSI based broth microdilution method; type: functional; settings: time 16-24 hrs
Acinetobacter baumannii = assay: Antibacterial activity against Carbapenem-resistant Acinetobacter baumannii clinical isolate incubated for 16 to 24 hrs by CLSI based broth microdilution method; type: functional; settings: time 16-24 hrs
[14] = Volume of distribution at steady state in CD-1 mouse at 10 mg/kg, iv measured for 24 hrs by UPLC analysis; type: ADME, organism-based; settings: in vivo, read-out: Vdss
Enterococcus faecium [15] = assay: Antibacterial activity against vancomycin-resistant Enterococcus faecium harboring VanM phenotype incubated for 16 to 24 hrs by CLSI based broth microdilution method; type: functional; settings: time 16-24 hrs
Staphylococcus aureus [16] = assay: Antibacterial activity against Staphylococcus aureus Mu50 assessed as fold decrease in MIC at 1:1 ratio of compound and Ac2KAA at […] incubated for 16 to 24 hrs by absorbance based assay relative to control; type: functional; settings: dose 128 µg/ml; time 16-24 hrs
[17] = Toxicity in BALB/c mouse infected with methicillin-resistant Staphylococcus aureus MRSA252 assessed as survival rate at 20 mg/kg, iv for 7 days; type: organism-based; settings: in vivo, 168 h, time 7 day
[18] = AUC (infinity) in CD-1 mouse at 10 mg/kg, iv measured for 24 hrs by UPLC analysis; type: ADME, organism-based; settings: in vivo
Klebsiella pneumoniae = assay: Antibacterial activity against Klebsiella pneumoniae clinical isolate incubated for 16 to 24 hrs by CLSI based broth microdilution method; type: functional; settings: time 16-24 hrs
Staphylococcus aureus [19] = assay: Post-antibiotic effect in Staphylococcus aureus MRSA252 assessed as change in bacterial titer at 10 times measured after 2 hrs; type: functional
Staphylococcus aureus [20] = assay: Post-antibiotic effect in Staphylococcus aureus MRSA252 assessed as time of effect at 10 to 20 times; type: functional
HEK-293T [21] = assay: Cytotoxicity against HEK293T cells at 100 ug/ml incubated for 72 hrs by MTT assay; type: toxicity, cell-based; settings: human, dose 100 µg/ml
HEK-293T [22] = assay: Cytotoxicity against HEK293T cells upto […] incubated for 72 hrs by MTT assay; type: toxicity, cell-based; settings: human

Compound | MIC (Staphylococcus aureus [2]) [µg/mL] | MIC (Staphylococcus aureus [4]) [µg/mL] | MIC (Escherichia coli) [µg/mL] | MIC (Enterococcus faecium [5]) [µg/mL] | MIC (Enterococcus faecium [7]) [µg/mL] | fold change (FC) (Staphylococcus aureus [9]) | MIC (Pseudomonas aeruginosa) [µg/mL] | MIC (Acinetobacter baumannii) [µg/mL] | MIC (Enterococcus faecium [15]) [µg/mL] | MIC (Klebsiella pneumoniae) [µg/mL] | also measured
CC(C)C[C@@H](N)C(=O)N[C@H]1C(=O)N[C@@H](CC(N)=O)C(=O)N[C@H]2C(=O)N[C@H]3C(=O)N[C@H](C(=O)N[C@H](C(=O)O)c4cc(O)cc(O)c4-c4cc3ccc4O)[C@H](O)c3ccc(c(Cl)c3)Oc3cc2cc(c3O[C@@H]2O[C@H](CO)[C@@H](O)[C@H](O)[C@H]2O[C@H]2C[C@](C)(N)[C@H](O)[C@H](C)O2)Oc2ccc(cc2Cl)[C@H]1O | 2 (≈ 1.39 µM) | 0.5 (≈ 0.348 µM) | > 128 | > 128 | 128 (≈ 89.2 µM) | 4 | > 128 | > 128 | 128 (≈ 89.2 µM) | > 128 | Activity [1]: 75%; half-life [3]: 31.8 min; Activity (Staphylococcus aureus [6]): inactive; clearance [8]: 27.3 mL/min/kg; Activity (Staphylococcus aureus [10]): 0.2 log10CFU/ml; MRT inf [11]: 33.6 min; Activity (Enterococcus faecalis): inactive; MIC (Staphylococcus aureus [12]): > 128 µg/mL; AUC(0-t) at 24 h [13]: 5210 ng·h/mL; Vd [14]: 0.919 L/kg; fold change (FC) (Staphylococcus aureus [16]): >32; Activity [17]: 62.5%; AUC(0-inf) [18]: 6300 ng·h/mL; Activity (Staphylococcus aureus [19]): 1 log10CFU/ml; Time (Staphylococcus aureus [20]): 1 h
CN[C@H](CC(C)C)C(=O)N[C@H]1C(=O)N[C@@H](CC(N)=O)C(=O)N[C@H]2C(=O)N[C@H]3C(=O)N[C@H](C(=O)N[C@H](C(=O)NCCCCCCCCNC(=N)N)c4cc(O)cc(O)c4-c4cc3ccc4O)[C@H](O)c3ccc(c(Cl)c3)Oc3cc2cc(c3O[C@@H]2O[C@H](CO)[C@@H](O)[C@H](O)[C@H]2O[C@H]2C[C@](C)(N)[C@H](O)[C@H](C)O2)Oc2ccc(cc2Cl)[C@H]1O | 1 (≈ 0.618 µM) | 0.25 (≈ 0.155 µM) | 16 (≈ 9.89 µM) | 8 (≈ 4.95 µM) | 8 (≈ 4.95 µM) | – | 128 (≈ 79.1 µM) | 32 (≈ 19.8 µM) | 16 (≈ 9.89 µM) | 128 (≈ 79.1 µM) | Activity (HEK-293T [21]): Non-Toxic; Activity (HEK-293T [22]): Non-Toxic
CCCCCCCCCC(=O)N[C@@H](Cc1c[nH]c2ccccc12)C(=O)N[C@@H](CC(N)=O)C(=O)N[C@@H](CC(=O)O)C(=O)N[C@@H]1C(=O)NCC(=O)N[C@@H](CCCN)C(=O)N[C@@H](CC(=O)O)C(=O)N[C@H](C)C(=O)N[C@@H](CC(=O)O)C(=O)NCC(=O)N[C@H](CO)C(=O)N[C@@H]([C@@H](C)CC(=O)O)C(=O)N[C@@H](CC(=O)c2ccccc2N)C(=O)O[C@@H]1C | 4 (≈ 2.47 µM) | 2 (≈ 1.23 µM) | 128 (≈ 79 µM) | 8 (≈ 4.94 µM) | 8 (≈ 4.94 µM) | 8 | > 128 | 128 (≈ 79 µM) | 8 (≈ 4.94 µM) | > 128 | –
